Reference: patent publication US20060166985A1, “Pyrrolydin-2-one derivatives as inhibitors of thrombin and factor xa” (priority 2002, published 2006)
pKi: −log10 of the molar value.

Molecular target: human Thrombin (Homo sapiens, UniProt P00734)
Assay: In vitro assay for inhibition of Thrombin (chromogenic or fluorogenic assay)
Format: biochemical
Settings: Example 2 chromogenic assay, other Examples fluorogenic assay, read-out: thrombin inhibitory Ki

SMILES | pKi
O=C([C@H](Cc1cccnc1)N1CC[C@H](NS(=O)(=O)CCc2ccc(Cl)s2)C1=O)N1CCOCC1 [Example 91, 2-(5-chloro-2-thienyl)-N-{(3S)-1-[(1S)-2-(4-morpholinyl)-2-oxo-1-(3-pyridinylmethyl)ethyl]-2-oxo-3-pyrrolidinyl}ethanesulfonamide] | > 8.00
O=C([C@H](c1cccs1)N1CC[C@H](NS(=O)(=O)CCc2ccc(Cl)s2)C1=O)N1CCOCC1 [Example 73, 2-(5-chloro-2-thienyl)-N-{(3S)-1-[(1R)-2-(4-morpholinyl)-2-oxo-1-(2-thienyl)ethyl]-2-oxo-3-pyrrolidinyl}ethanesulfonamide] | > 7.30
CCOC[C@@H](C(=O)N1CCOCC1)N1CC[C@H](NS(=O)(=O)CC(C)c2ccc(Cl)s2)C1=O (stereo partly drawn) [Example 59, 2-(5-chloro-2-thienyl)-N-{(3S)-1-[(1S)-1-[(ethyloxy)methyl]-2-(4-morpholinyl)-2-oxoethyl]-2-oxo-3-pyrrolidinyl}-1-propanesulfonamide] | > 7.60
COCC[C@@H](C(=O)N1CCOCC1)N1CC[C@H](NS(=O)(=O)CCc2ccc(Cl)s2)C1=O [Example 88] | > 7.60
CC[C@H](C)[C@@H](C(=O)N1CCOCC1)N1CC[C@H](NS(=O)(=O)CC2CCc3cc(Cl)ccc32)C1=O (stereo partly drawn) [Example 63, 1-(5-chloro-2,3-dihydro-1H-inden-1-yl)-N-{(3S)-1-[(1S,2S)-2-methyl-1-(4-morpholinylcarbonyl)butyl]-2-oxo-3-pyrrolidinyl}methanesulfonamide] | > 7.30
Cn1cnc(C[C@@H](C(=O)N2CCOCC2)N2CC[C@H](NS(=O)(=O)CCc3ccc(Cl)s3)C2=O)n1 [Example 80, 2-(5-chloro-2-thienyl)-N-{(3S)-1-[(1S)-1-[(1-methyl-1H-1,2,4-triazol-3-yl)methyl]-2-(4-morpholinyl)-2-oxoethyl]-2-oxo-3-pyrrolidinyl}ethanesulfonamide] | > 7.30
COC[C@@H](C(=O)N1CCOCC1)N1CC[C@H](NS(=O)(=O)CC(=O)c2ccc(Cl)cc2)C1=O [Example 52] | > 7.30
C/C(=C\S(=O)(=O)N[C@H]1CCN([C@@H](C)C(=O)N2CCOCC2)C1=O)c1ccc(Cl)cc1 [Example 3, (1E)-2-(4-chlorophenyl)-N-{(3S)-1-[(1S)-1-methyl-2-morpholin-4-yl-2-oxoethyl]-2-oxopyrrolidin-3-yl}prop-1-ene-1-sulfonamide] | > 7.60
C/C(=C\S(=O)(=O)N[C@H]1CCN([C@@H](Cc2ccccc2)C(=O)N2CCOCC2)C1=O)c1ccc(Cl)s1 [Example 14, (1E)-N-{(3S)-1-[(1S)-1-benzyl-2-morpholin-4-yl-2-oxoethyl]-2-oxopyrrolidin-3-yl}-2-(5-chlorothien-2-yl)prop-1-ene-1-sulfonamide] | > 8.00
CC[C@H](C)[C@@H](C(=O)N1CCOCC1)N1CC[C@H](NS(=O)(=O)/C=C(\F)c2ccc(Cl)cc2)C1=O [Example 30, (Z)-2-(4-chlorophenyl)-2-fluoro-N-{(3S)-1-[(1S,2S)-2-methyl-1-(morpholin-4-ylcarbonyl)butyl]-2-oxopyrrolidin-3-yl}ethenesulfonamide] | > 6.70
COC[C@@H](C(=O)N1CCOCC1)N1CC[C@H](NS(=O)(=O)CCc2ccc(Cl)cc2)C1=O [Example 89, 2-(4-chlorophenyl)-N-{(3S)-1-[(1S)-1-[(methyloxy)methyl]-2-(4-morpholinyl)-2-oxoethyl]-2-oxo-3-pyrrolidinyl}ethanesulfonamide] | > 7.30
C[C@@H](C(=O)N1CCOCC1)N1CC[C@H](NS(=O)(=O)/C=C/c2ccc(Cl)cc2)C1=O [(E)-2-(4-chlorophenyl)-N-{(3S)-1-[(1S)-1-methyl-2-morpholin-4-yl-2-oxoethyl]-2-oxopyrrolidin-3-yl}ethenesulfonamide, reference compound] | < 6.70
CC(C)[C@@H](C(=O)N1CCOCC1)N1CC[C@H](NS(=O)(=O)CCc2ccc(Cl)s2)C1=O [Example 8, 2-(5-chlorothien-2-yl)-N-{(3S)-1-[(1S)-2-methyl-1-(morpholin-4-ylcarbonyl)propyl]-2-oxopyrrolidin-3-yl}ethanesulfonamide] | > 8.00
C[C@@H](C(=O)N1CCOCC1)N1CC[C@H](NS(=O)(=O)CCc2ccc(Br)cc2)C1=O [Example 33, 2-(4-bromophenyl)-N-{(3S)-1-[(1S)-1-methyl-2-morpholin-4-yl-2-oxoethyl]-2-oxopyrrolidin-3-yl}ethanesulfonamide] | > 7.60
COC[C@@H](C(=O)N1CCOCC1)N1CC[C@H](NS(=O)(=O)CC2COc3cc(Cl)ccc32)C1=O (stereo partly drawn) [Example 65, 1-(6-chloro-2,3-dihydro-1-benzofuran-3-yl)-N-{(3S)-1-[(1S)-1-[(methyloxy)methyl]-2-(4-morpholinyl)-2-oxoethyl]-2-oxo-3-pyrrolidinyl}methanesulfonamide] | > 7.00
C/C(=C\S(=O)(=O)N[C@H]1CCN([C@@H](CCN2CCOCC2)C(=O)N2CCOCC2)C1=O)c1ccc(Cl)s1 [Example 96, (1E)-2-(5-chloro-2-thienyl)-N-{(3S)-1-[(1S)-3-(4-morpholinyl)-1-(4-morpholinylcarbonyl)propyl]-2-oxo-3-pyrrolidinyl}-1-propene-1-sulfonamide] | > 7.30

SMILES | pKi
O=C([C@H](Cc1ccncc1)N1CC[C@H](NS(=O)(=O)CCc2ccc(Cl)s2)C1=O)N1CCOCC1 [Example 90, 2-(5-chloro-2-thienyl)-N-{(3S)-1-[(1S)-2-(4-morpholinyl)-2-oxo-1-(4-pyridinylmethyl)ethyl]-2-oxo-3-pyrrolidinyl}ethanesulfonamide] | > 7.30
C[C@@H](C(=O)N1CCOCC1)N1CC[C@H](N(CC(N)=O)S(=O)(=O)CCc2ccc(Cl)s2)C1=O [Example 20, N^2-{[2-(5-Chlorothien-2-yl)ethyl]sulfonyl}-N^2-{(3S)-1-[(1S)-1-methyl-2-morpholin-4-yl-2-oxoethyl]-2-oxopyrrolidin-3-yl}glycinamide] | > 7.60
CC[C@H](C)[C@@H](C(=O)N1CCOCC1)N1CC[C@H](NS(=O)(=O)CCc2ccc(Cl)s2)C1=O [Example 10, 2-(5-chlorothien-2-yl)-N-{(3S)-1-[(1S,2S)-2-methyl-1-(morpholin-4-ylcarbonyl)butyl]-2-oxopyrrolidin-3-yl}ethanesulfonamide] | > 8.00
CN(C)C(=O)C[C@@H](C(=O)N1CCOCC1)N1CC[C@H](NS(=O)(=O)CCc2ccc(Cl)s2)C1=O [Example 32] | > 7.30
CC[C@H](C)[C@@H](C(=O)N1CCOCC1)N1CC[C@H](NS(=O)(=O)CC(=O)c2ccc(Cl)cc2)C1=O [Example 51, 2-(4-chlorophenyl)-N-{(3S)-1-[(1S,2S)-2-methyl-1-(4-morpholinylcarbonyl)butyl]-2-oxo-3-pyrrolidinyl}-2-oxoethanesulfonamide] | > 7.30
COC[C@@H](C(=O)N1CCOCC1)N1CC[C@H](NS(=O)(=O)/C=C(\C)c2ccc(Cl)s2)C1=O [Example 16, (1E)-2-(5-chlorothien-2-yl)-N-{(3S)-1-[(1S)-1-(methoxymethyl)-2-morpholin-4-yl-2-oxoethyl]-2-oxopyrrolidin-3-yl}prop-1-ene-1-sulfonamide] | > 8.00
CC[C@@H](C(=O)N1CCOCC1)N1CC[C@H](NS(=O)(=O)CCc2ccc(Cl)cc2)C1=O [Example 6, 2-(4-chlorophenyl)-N-{(3S)-1-[(1S)-1-(morpholin-4-ylcarbonyl)propyl]-2-oxopyrrolidin-3-yl}ethanesulfonamide] | > 7.00
N#CC[C@@H](C(=O)N1CCOCC1)N1CC[C@H](NS(=O)(=O)CCc2ccc(Cl)s2)C1=O [Example 76, 2-(5-chloro-2-thienyl)-N-{(3S)-1-[(1S)-1-(cyanomethyl)-2-(4-morpholinyl)-2-oxoethyl]-2-oxo-3-pyrrolidinyl}ethanesulfonamide] | > 7.00
C[C@@H](C(=O)N1CCOCC1)N1CC[C@H](NS(=O)(=O)/C=C(/c2ccc(Cl)s2)C(F)(F)F)C1=O [Example 41, (1E)-2-(5-chlorothien-2-yl)-3,3,3-trifluoro-N-{(3S)-1-[(1S)-1-methyl-2-morpholin-4-yl-2-oxoethyl]-2-oxopyrrolidin-3-yl}prop-1-ene-1-sulfonamide] | > 7.00
Cc1noc(C[C@@H](C(=O)N2CCOCC2)N2CC[C@H](N(C)S(=O)(=O)CCc3ccc(Cl)s3)C2=O)n1 [Example 79, 2-(5-chloro-2-thienyl)-N-methyl-N-{(3S)-1-[(1S)-1-[(3-methyl-1,2,4-oxadiazol-5-yl)methyl]-2-(4-morpholinyl)-2-oxoethyl]-2-oxo-3-pyrrolidinyl}ethanesulfonamide] | > 7.30
COC[C@@H](C(=O)N1CCOCC1)N1CC[C@H](N(CC(=O)N(C)C)S(=O)(=O)CCc2ccc(Cl)s2)C1=O [Example 97, N^2-{[2-(5-chloro-2-thienyl)ethyl]sulfonyl}-N^1,N^1-dimethyl-N^2-{(3S)-1-[(1S)-1-[(methyloxy)methyl]-2-(4-morpholinyl)-2-oxoethyl]-2-oxo-3-pyrrolidinyl}glycinamide] | > 7.30
COC[C@@H](C(=O)N1CCOCC1)N1CC[C@H](NS(=O)(=O)CCc2ccc(Cl)s2)C1=O [Example 15, 2-(5-chlorothien-2-yl)-N-{(3S)-1-[(1S)-1-(methoxymethyl)-2-morpholin-4-yl-2-oxoethyl]-2-oxopyrrolidin-3-yl}ethanesulfonamide] | > 7.30
O=C([C@H](Cc1cscn1)N1CC[C@H](NS(=O)(=O)CCc2ccc(Cl)s2)C1=O)N1CCOCC1 [Example 71, 2-(5-chloro-2-thienyl)-N-{(3S)-1-[(1S)-2-(4-morpholinyl)-2-oxo-1-(1,3-thiazol-4-ylmethyl)ethyl]-2-oxo-3-pyrrolidinyl)ethanesulfonamide] | > 7.30
O=C([C@H](Cc1cscn1)N1CC[C@H](NS(=O)(=O)CCc2ccc(Cl)cc2)C1=O)N1CCOCC1 [Example 72, 2-(4-chlorophenyl)-N-{(3S)-1-[(1S)-2-(4-morpholinyl)-2-oxo-1-(1,3-thiazol-4-ylmethyl)ethyl]-2-oxo-3-pyrrolidinyl}ethanesulfonamide] | > 6.70
C[C@@H](C(=O)N1CCOCC1)N1CC[C@H](NS(=O)(=O)CC2COc3cc(Cl)ccc32)C1=O (stereo partly drawn) [Example 64, 1-(6-chloro-2,3-dihydro-1-benzofuran-3-yl)-N-{(3S)-1-[(1S)-1-methyl-2-(4-morpholinyl)-2-oxoethyl]-2-oxo-3-pyrrolidinyl}methanesulfonamide] | > 7.00
